From patent US9498483B2, “2,3,5-trisubstituted thiophene compounds and uses thereof” (priority 2010, dated 2016)

Legend:
[1] = tested on: HCV replicon I389luc-ubi-neo/NS3-3′/ET in ET (Huh-lucubineo-ET) cells; experiment: Replicon assay (Biological Example 2), luciferase readout; assay type: cell-based; conditions: Hepatitis C virus
Protocol: A cell line, ET (Huh-lucubineo-ET) was used for screening of compounds for inhibiting HCV RNA dependent RNA polymerase. The ET cell line was stably transfected with RNA transcripts harboring a I389luc-ubi-neo/NS3-3′/ET; replicon with firefly luciferase-ubiquitin-neomycin phosphotransferase fusion protein and EMCV-IRES driven NS3-5B polyprotein containing the cell culture adaptive mutations (E1202G; T12801; K1846T) (Krieger at al, 2001 and unpublished). The ET cells were grown in DMEM (Dulbeco's Modified Eagle's Medium), supplemented with 10% fetal calf serum, 2 mM Glutamine, Penicillin (100 IU/mL)/Streptomycin (100 μg/mL), 1× nonessential amino acids, and 250 μg/mL G418 (“Geneticin”). Reagents were all available through Life Technologies (Bethesda, Md.). The cells were plated at 0.5-1.0×10^4 cells/well in the 96 well plates and incubated for 24 hrs before adding test compound. The compounds were added to the cells to achieve a final concentration of 0.1 nM to 50 μM and a final DMSO (dimethylsulfoxide) concentration of 0.5%. Luciferase activity was measured 48 hours later by adding a lysis buffer and the substrate (Catalog number Glo-lysis buffer E2661 and Bright-Glo luciferase system E2620 Promega, Madison, Wis.). Cells should not be too confluent during the assay. Percent inhibition of replication data was plotted relative to no compound control. To determine the EC50 (effective concentration at which 50% of the maximum inhibition was observed), a 10 point, 3-fold serial dilution for each compound was used, which spans a concentration range of […]. EC50 values were calculated by fitting % inhibition at each concentration to the following equation: % inhibition=100%/[(EC50/[I])^b+1] where b was Hill's coefficient.
In other aspects the EC50 was equal to or less than 10 μM. In still other aspects the EC50 was equal to or less than 1 μM.

HCV polymerase = biological target: T1, HCV polymerase (Hepatitis C virus genotype 1b, UniProt Q9WMX2); experiment: Polymerase assay of Biological Example 1 (IC50 values of Table 3); assay type: biochemical; conditions: IC50 values of Table 3, polymerase assay of Biological Example 1; read-out: NS5B-enzyme3
T1 construct: (His)6 (C); made in house; host or cells: XL-1 cells (E. coli, by own knowledge)
Source text: A number of assays have been published to assess these activities. A general method that assesses the gross increase of HCV virus in culture was disclosed in U.S. Pat. No. 5,738,985 to Miles et al. In vitro assays have been reported in Ferrari et al. Jnl. of Vir., 73:1649-1654, 1999; Ishii et al., Hepatology, 29:1227-1235, 1999; Lohmann et al., Jnl of Bio. Chem., 274:10807-10815, 1999; and Yamashita et al., Jnl. of Bio. Chem., 273:15479-15486, 1998.
WO 97/12033, filed on Sep. 27, 1996, by Emory University, listing C. Hagedorn and A. Reinoldus as inventors, which claims priority to U.S. Provisional Patent Application Ser. No. 60/004,383, filed on September 1995, described an HCV polymerase assay that can be used to evaluate the activity of the of the compounds described herein. Another HCV polymerase assay has been reported by Bartholomeusz, et al., Hepatitis C Virus (HCV) RNA polymerase assay using cloned HCV non-structural proteins; Antiviral Therapy 1996:1 (Supp 4) 18-24.

[2] = ET cells, luciferase activity 48 hours after compound

Row | Compound | IC50 ([1]; between 100 nM and 5.0 uM) [nM] | IC50 (HCV polymerase) [nM] | IC50 [1, 2] [nM]
1 | O=C(O)c1sc(-c2ccccc2)cc1N1C(=O)CN(S(=O)(=O)c2ccc(N3CCCC3)nc2)C[C@@H]1C1CCCCC1 [Compound 136, 3-[(S)-2-Cyclohexyl-6-oxo-4-(6-pyrrolidin-1-yl-pyridine-3-sulfonyl)-piperazin-1-yl]-5-phenyl-thiophene-2-carboxylic acid] | 100 to 5000 | 260 | 
2 | O=C(O)c1sc(-c2ccccc2)cc1N1C(=O)CN(S(=O)(=O)c2ccc(-n3cccn3)cc2)CC1C1CCCCC1 (stereo not drawn) [Compound 101, 3-[2-Cyclohexyl-6-oxo-4-(4-pyrazol-1-yl-benzenesulfonyl)-piperazin-1-yl]-5-phenyl-thiophene-2-carboxylic acid] | 100 to 5000 | 11 | 
3 | O=C(O)c1sc(-c2ccccc2)cc1N1C(=O)CCC1C1CCCCC1 (stereo not drawn) [Compound 1, 3-(2-Cyclohexyl-5-oxo-pyrrolidin-1-yl)-5-phenyl-thiophene-2-carboxylic acid] | 100 to 5000 | 181 | 
4 | Cn1ccc(S(=O)(=O)N2CC(=O)N(c3cc(-c4ccc(Cl)cc4)sc3C(=O)O)[C@H](C3CCCCC3)C2)n1 [Compound 284, 5-(4-Chloro-phenyl)-3-[(R)-2-cyclohexyl-4-(1-methyl-1H-pyrazole-3-sulfonyl)-6-oxo-piperazin-1-yl]-thiophene-2-carboxylic acid] |  | 3 | ≤ 100
5 | O=C(O)c1sc(-c2ccccc2)cc1N1C(=O)CN(S(=O)(=O)c2ccc(-c3ccccc3)nc2)C[C@H]1C1CCCCC1 [Compound 178, 3-[(R)-2-Cyclohexyl-6-oxo-4-(6-phenyl-pyridine-3-sulfonyl)-piperazin-1-yl]-5-phenyl-thiophene-2-carboxylic acid] | 100 to 5000 | 1 | 
6 | O=C(O)c1sc(-c2ccccc2F)cc1N1C(=O)CCCC1C1CCCCC1 (stereo not drawn) [Compound 67, 3-(2-Cyclohexyl-6-oxo-piperidin-1-yl)-5-(2-fluoro-phenyl)-thiophene-2-carboxylic acid] | 100 to 5000 | 183 | 
7 | Cn1cc(-c2ccc(S(=O)(=O)N3CC(=O)N(c4cc(-c5ccccc5)sc4C(=O)O)[C@H](C4CCCCC4)C3)cn2)cn1 [Compound 222, 3-{(R)-2-Cyclohexyl-4-[6-(1-methyl-1H-pyrazol-4-yl)-pyridine-3-sulfonyl]-6-oxo-piperazin-1-yl}-5-phenyl-thiophene-2-carboxylic acid] |  | 2 | ≤ 100
8 | O=C(O)c1sc(-c2ccccc2)cc1N1C(=O)CN(S(=O)(=O)c2ccc(-c3ccc(F)cc3F)nc2)C[C@H]1C1CCCCC1 [Compound 205, 3-{(R)-2-Cyclohexyl-4-[6-(2,4-difluoro-phenyl)-pyridine-3-sulfonyl]-6-oxo-piperazin-1-yl}-5-phenyl-thiophene-2-carboxylic acid] | 100 to 5000 | 4 | 
9 | C[C@H]1CCCN1c1ccc(S(=O)(=O)N2CC(=O)N(c3cc(-c4ccccc4)sc3C(=O)O)C(C3CCCCC3)C2)cn1 (stereo partly drawn) [Compound 119, 3-{2-Cyclohexyl-4-[6-((S)-2-methyl-pyrrolidin-1-yl)-pyridine-3-sulfonyl]-6-oxo-piperazin-1-yl}-5-phenyl-thiophene-2-carboxylic acid] |  | 9 | ≤ 100
10 | CC(C)(C)C#Cc1cc(N2C(=O)C(CCCO)(CCCO)OC[C@H]2C2CCCCC2)c(C(=O)O)s1 [Compound 115, 3-[(R)-5-Cyclohexyl-2,2-bis-(3-hydroxy-propyl)-3-oxo-morpholin-4-yl]-5-(3,3-dimethyl-but-1-ynyl)-thiophene-2-carboxylic acid] | 100 to 5000 | 4 | 
11 | COc1ccc(-c2cc(N3C(=O)CCCC3C3CCCCC3)c(C(=O)O)s2)cc1 (stereo not drawn) [Compound 114, 3-(2-Cyclohexyl-6-oxo-piperidin-1-yl)-5-(4-methoxy-phenyl)-thiophene-2-carboxylic acid] | 100 to 5000 | 90 | 
12 | O=C(O)c1sc(-c2ccccc2)cc1N1C(=O)CN(S(=O)(=O)c2ccc(-c3cncnc3)nc2)C[C@H]1C1CCCCC1 [Compound 206, 3-[(R)-2-Cyclohexyl-6-oxo-4-(6-pyrimidin-5-yl-pyridine-3-sulfonyl)-piperazin-1-yl]-5-phenyl-thiophene-2-carboxylic acid] | 100 to 5000 | 1 | 
13 | CC(C)(C)C#Cc1cc(N2C(=O)[C@](C)(CCC(C)(C)O)OC[C@H]2C2CCCCC2)c(C(=O)O)s1 [Compound 318, 3-[(2S,5R)-5-Cyclohexyl-2-(3-hydroxy-3-methyl-butyl)-2-methyl-3-oxo-morpholin-4-yl]-5-(3,3-dimethyl-but-1-ynyl)-thiophene-2-carboxylic acid] |  | 14 | ≤ 100
14 | C[C@@H]1CC[C@H](C)N1c1ccc(S(=O)(=O)N2CC(=O)N(c3cc(-c4ccccc4)sc3C(=O)O)[C@H](C3CCCCC3)C2)cn1 [Compound 164, 3-{(R)-2-Cyclohexyl-4-[6-((2S,5R)-2,5-dimethyl-pyrrolidin-1-yl)-pyridine-3-sulfonyl]-6-oxo-piperazin-1-yl}-5-phenyl-thiophene-2-carboxylic acid] |  | 1 | ≤ 100
15 | CC(C)(C)C#Cc1cc(N2C(=O)[C@@](C)(CC(O)CO)OC[C@H]2C2CCCCC2)c(C(=O)O)s1 (stereo partly drawn) [Compound 330, 3-[(2R,5R)-5-Cyclohexyl-2-(2,3-dihydroxy-propyl)-2-methyl-3-oxo-morpholin-4-yl]-5-(3,3-dimethyl-but-1-ynyl)-thiophene-2-carboxylic acid] |  | 3 | ≤ 100
16 | C[C@@H]1CCCCN1c1ccc(S(=O)(=O)N2CC(=O)N(c3cc(-c4ccccc4)sc3C(=O)O)[C@H](C3CCCCC3)C2)cn1 [Compound 183, 3-[(R)-2-Cyclohexyl-4-((R)-2-methyl-3,4,5,6-tetrahydro-2H-[1,2′]bipyridinyl-5′-sulfonyl)-6-oxo-piperazin-1-yl]-5-phenyl-thiophene-2-carboxylic acid] |  | 1.8 | ≤ 100
17 | CC(C)(C)C#Cc1cc(N2C(=O)C(CCCO)CC[C@H]2C2CCCCC2)c(C(=O)O)s1 (stereo partly drawn) [Compound 339, 3-[(S)-6-Cyclohexyl-3-(3-hydroxy-propyl)-2-oxo-piperidin-1-yl]-5-(3,3-dimethyl-but-1-ynyl)-thiophene-2-carboxylic acid] |  | 8 | ≤ 100
18 | CC(C)(C)OC(=O)N[C@@H]1CCN(c2ccc(S(=O)(=O)N3CC(=O)N(c4cc(-c5ccccc5)sc4C(=O)O)[C@H](C4CCCCC4)C3)cn2)C1 [Compound 146, 3-{(R)-4-[6-((R)-3-tert-Butoxycarbonyl-amino-pyrrolidin-1-yl)-pyridine-3-sulfonyl]-2-cyclohexyl-6-oxo-piperazin-1-yl}-5-phenyl-thiophene-2-carboxylic acid] |  | 2 | ≤ 100
19 | CC(C)(C)C#Cc1cc(N2C(=O)[C@H](CCCCO)OC[C@H]2C2CCCCC2)c(C(=O)O)s1 [Compound 338, 3-[(2S,5R)-5-Cyclohexyl-2-(4-hydroxy-butyl)-3-oxo-morpholin-4-yl]-5-(3,3-dimethyl-but-1-ynyl)-thiophene-2-carboxylic acid] | 100 to 5000 | 31 | 
20 | CC(C)(C)C#Cc1cc(N2C(=O)[C@H](O)CC[C@H]2C2CCCCC2)c(C(=O)O)s1 [Compound 334, 3-((3R,6S)-6-Cyclohexyl-3-hydroxy-2-oxo-piperidin-1-yl)-5-(3,3-dimethyl-but-1-ynyl)-thiophene-2-carboxylic acid] |  | 3 | ≤ 100
21 | CCc1ccc(S(=O)(=O)N2CC(=O)N(c3cc(-c4ccc(C)cc4)sc3C(=O)O)[C@H](C3CCCCC3)C2)cn1 [Compound 304, 3-[(R)-2-Cyclohexyl-4-(6-ethyl-pyridine-3-sulfonyl)-6-oxo-piperazin-1-yl]-5-p-tolyl-thiophene-2-carboxylic acid] |  | 5 | ≤ 100
